For data set [1], the system named is BaF3. Description: cells. Conditions: Mus musculus, BaF3, 72 h.
Data set [2] concerns Huh-7. The data set is described as follows: Antitumor activity against human Huh-7 cells xenografted in ip dosed BALB/c nude mouse assessed as tumor growth inhibition administered twice daily for 17 continuous days and measured every 2 days. As to conditions: time 17.0 day, DDE = dose-dependent effect. The class given is functional, organism-based. Background: In xenograft studies the graft and the host belong to different species.

Data set [3] relates to BaF3. Description: cells. Conditions: Mus musculus, BaF3, 72 h. This is another data set of the same source.
The subject of data set [4] is Hep 3B2. The data set is described as follows: cells. Conditions: Homo sapiens, Hep3B, 120 h.
Description: Antiproliferative activity against human Hep3B cells assessed as inhibition of cell growth incubated for 5 days by SRB assay
The target of data set [5] is Fibroblast growth factor receptor 4 (Mus musculus) (UniProt Q03142). Description: Inhibition of wild type FGFR4 phosphorylation in mouse BAF3 cells assessed as reduction in FRS2 level at 3 to 90 nM incubated for 6 hrs by Western blot analysis. Conditions: dose 3-90 nM. Format: cell-based.
Chain of Fibroblast growth factor receptor 4 (Mus musculus) (Q03142 17-799 limits assumed): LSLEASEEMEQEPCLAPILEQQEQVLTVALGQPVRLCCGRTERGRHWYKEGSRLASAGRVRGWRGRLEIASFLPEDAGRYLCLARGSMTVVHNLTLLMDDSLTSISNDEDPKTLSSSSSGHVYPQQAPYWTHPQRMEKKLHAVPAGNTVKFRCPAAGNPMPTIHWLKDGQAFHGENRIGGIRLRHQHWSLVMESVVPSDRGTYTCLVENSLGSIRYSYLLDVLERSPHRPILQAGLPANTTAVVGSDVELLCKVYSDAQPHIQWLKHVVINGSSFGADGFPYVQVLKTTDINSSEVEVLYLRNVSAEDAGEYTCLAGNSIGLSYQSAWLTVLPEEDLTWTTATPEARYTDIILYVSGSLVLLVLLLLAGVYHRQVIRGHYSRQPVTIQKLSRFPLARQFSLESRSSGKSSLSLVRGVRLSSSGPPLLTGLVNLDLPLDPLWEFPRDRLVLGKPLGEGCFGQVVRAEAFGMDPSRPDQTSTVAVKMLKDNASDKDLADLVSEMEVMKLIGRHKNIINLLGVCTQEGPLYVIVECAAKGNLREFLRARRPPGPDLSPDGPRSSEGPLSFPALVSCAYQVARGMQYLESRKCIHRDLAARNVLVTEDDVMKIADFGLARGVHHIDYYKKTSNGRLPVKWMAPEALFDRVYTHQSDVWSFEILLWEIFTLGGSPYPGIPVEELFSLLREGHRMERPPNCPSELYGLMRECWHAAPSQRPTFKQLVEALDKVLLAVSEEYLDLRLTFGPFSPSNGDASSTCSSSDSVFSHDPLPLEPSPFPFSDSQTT
Data set [6] relates to Huh-7. The data set is described as follows: Antitumor activity against human Huh-7 cells xenografted in BALB/c nude mouse assessed as tumor growth inhibition at 20 mg/kg, ip administered twice daily for 17 continuous days and measured every 2 days. The class given is functional. As to conditions: Huh-7, 408 h, time 17 day, read-out: TGI.
For data set [7], the system named is Huh-7. The data set is described as follows: Antiproliferative activity against human Huh-7 cells assessed as inhibition of cell growth incubated for 5 days by SRB assay. Format: functional, cell-based. Conditions: Huh-7, 120 h. On the technique in general: Sulforhodamine B stains cellular protein and so reports cell mass.
Data set [8] deals with BaF3. Description: Inhibition of FGFR4 V550L mutant signalling in mouse BAF3 cells at 3 to 90 nM incubated for 6 hrs by Western blot analysis. Format: cell-based. As to conditions: dose 3-90 nM.
The target of data set [9] is Fibroblast growth factor receptor 2 (Homo sapiens, UniProt P21802).
Chain of Fibroblast growth factor receptor 2 (P21802 whole entry): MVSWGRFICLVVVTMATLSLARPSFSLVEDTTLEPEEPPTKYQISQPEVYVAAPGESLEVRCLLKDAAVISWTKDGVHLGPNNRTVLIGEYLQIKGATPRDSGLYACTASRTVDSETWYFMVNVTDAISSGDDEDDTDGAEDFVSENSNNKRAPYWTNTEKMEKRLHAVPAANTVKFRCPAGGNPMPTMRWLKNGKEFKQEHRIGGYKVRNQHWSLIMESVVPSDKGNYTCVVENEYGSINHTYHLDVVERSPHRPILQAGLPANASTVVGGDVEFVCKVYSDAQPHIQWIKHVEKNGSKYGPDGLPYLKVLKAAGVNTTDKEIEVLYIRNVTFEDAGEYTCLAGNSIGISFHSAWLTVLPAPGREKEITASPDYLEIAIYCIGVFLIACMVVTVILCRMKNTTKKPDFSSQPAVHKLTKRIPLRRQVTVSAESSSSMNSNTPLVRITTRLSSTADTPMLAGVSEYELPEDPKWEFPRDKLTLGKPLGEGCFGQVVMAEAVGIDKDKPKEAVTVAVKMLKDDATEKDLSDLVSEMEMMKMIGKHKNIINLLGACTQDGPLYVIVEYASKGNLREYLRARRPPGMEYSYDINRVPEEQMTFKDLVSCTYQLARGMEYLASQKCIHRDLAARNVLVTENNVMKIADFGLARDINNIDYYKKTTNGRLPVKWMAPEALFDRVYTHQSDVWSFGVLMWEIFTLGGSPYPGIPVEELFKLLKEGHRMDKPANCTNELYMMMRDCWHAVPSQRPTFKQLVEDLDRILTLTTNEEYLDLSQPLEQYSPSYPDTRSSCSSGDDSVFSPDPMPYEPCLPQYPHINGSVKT
Description: Inhibition of FGFR2 (unknown orgin) using Tyr 04 peptide as substrate incubated for 1 hr in presence of 5 uM ATP by FRET based Z'-LYTE assay
The nature of data set [10]: Toxicity in BALB/c nude mouse xenografted with human Huh-7 cells assessed as loss of body weight at 20 to 40 mg/kg, […] administered twice daily for 17 days and measured every 2 days. Format: organism-based. As to conditions: in vivo, 408 h, dose 20-40 mg/kg, time 17 day.
Data set [11] has as its system NCI-H1299. Description: cells. Conditions: Homo sapiens, NCI-H1299, 120 h.
Description: Antiproliferative activity against human NCI-H1299 cells assessed as inhibition of cell growth incubated for 5 days by SRB assay
Data set [12] concerns the target Fibroblast growth factor receptor 4 (Mus musculus) (UniProt Q03142). Description: Inhibition of wild type FGFR4 phosphorylation in mouse BAF3 cells assessed as reduction in MAPK level at 3 to 90 nM incubated for 6 hrs by Western blot analysis. The class given is cell-based. As to conditions: dose 3-90 nM. (Immunoblotting shows a protein as a band on a membrane.)

The target is the same in data set [13]. The data set is described as follows: Inhibition of wild type FGFR4 phosphorylation in mouse BAF3 cells at 30 nM incubated for 6 hrs by Western blot analysis. Format: cell-based.
Data set [14] addresses Fibroblast growth factor receptor 1 (Homo sapiens, UniProt P11362).
Description: Inhibition of FGFR1 (unknown orgin) using Tyr 04 peptide as substrate incubated for 1 hr in presence of 25 uM ATP by FRET based Z'-LYTE assay
Data set [15] has as its system MDA-MB-453. The data set is described as follows: cells. Conditions: Homo sapiens, MDA-MB-453, 120 h.
Description: Antiproliferative activity against human MDA-MB-453 cells assessed as inhibition of cell growth incubated for 5 days by SRB assay
Data set [16] deals with BaF3. Description: Antiproliferative activity against mouse BAF3 cells assessed as inhibition of cell growth incubated for 72 hrs by CCK8 assay. Format: functional, cell-based. As to conditions: BaF3, 72 h.
Data set [17] has as its system BaF3. Description: Antiproliferative activity against mouse BAF3 cells expressing FGFR4 V550M mutant assessed as inhibition of cell growth incubated for 72 hrs by CCK8 assay. Format: functional, cell-based. Conditions: BaF3, 72 h.
Data set [18] in a line: Antiproliferative activity against human JHH7 cells assessed as inhibition of cell growth incubated for 5 days by SRB assay. The class given is functional, cell-based. As to conditions: JHH7, 120 h.
Data set [19] has as its target Fibroblast growth factor receptor 3 (Homo sapiens, UniProt P22607).
Description: Inhibition of FGFR3 (unknown orgin) using Tyr 04 peptide as substrate incubated for 1 hr in presence of 75 uM ATP by FRET based Z'-LYTE assay
The test system of data set [20] is Huh-7. Description: Antitumor activity against human Huh-7 cells xenografted in BALB/c nude mouse assessed as tumor growth inhibition at 40 mg/kg, ip administered twice daily for 17 continuous days and measured every 2 days. Format: functional. As to conditions: Huh-7, 408 h, time 17 day, read-out: TGI.

Calls of active or inactive are those of the source. The calls are words filed in the database; no cut-off is given here.

The IC50 is the point on the concentration scale where inhibition reaches its midpoint.

Chain of Fibroblast growth factor receptor 3 (P22607 whole entry): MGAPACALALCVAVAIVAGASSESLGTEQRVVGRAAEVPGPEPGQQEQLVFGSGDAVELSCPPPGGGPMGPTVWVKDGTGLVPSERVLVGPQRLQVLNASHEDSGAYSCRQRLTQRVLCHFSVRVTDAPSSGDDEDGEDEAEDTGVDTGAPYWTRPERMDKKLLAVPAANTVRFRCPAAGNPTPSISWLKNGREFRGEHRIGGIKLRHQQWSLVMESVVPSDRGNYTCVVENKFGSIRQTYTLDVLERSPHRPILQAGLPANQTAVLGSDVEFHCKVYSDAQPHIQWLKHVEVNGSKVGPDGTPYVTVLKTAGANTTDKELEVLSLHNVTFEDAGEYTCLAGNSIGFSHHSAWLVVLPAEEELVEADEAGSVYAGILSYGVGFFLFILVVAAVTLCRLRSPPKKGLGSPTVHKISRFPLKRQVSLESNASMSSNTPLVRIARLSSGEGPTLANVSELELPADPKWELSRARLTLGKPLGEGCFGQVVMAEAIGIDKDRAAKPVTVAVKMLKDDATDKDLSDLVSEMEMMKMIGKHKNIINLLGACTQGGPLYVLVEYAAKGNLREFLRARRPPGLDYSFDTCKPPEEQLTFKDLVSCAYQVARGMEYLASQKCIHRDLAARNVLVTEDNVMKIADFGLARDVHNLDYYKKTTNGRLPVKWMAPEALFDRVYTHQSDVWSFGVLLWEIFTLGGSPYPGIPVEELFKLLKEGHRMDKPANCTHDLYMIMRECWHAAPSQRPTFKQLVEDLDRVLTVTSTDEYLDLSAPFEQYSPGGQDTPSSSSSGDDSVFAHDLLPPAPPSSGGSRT
Chain of Fibroblast growth factor receptor 1 (P11362 whole entry): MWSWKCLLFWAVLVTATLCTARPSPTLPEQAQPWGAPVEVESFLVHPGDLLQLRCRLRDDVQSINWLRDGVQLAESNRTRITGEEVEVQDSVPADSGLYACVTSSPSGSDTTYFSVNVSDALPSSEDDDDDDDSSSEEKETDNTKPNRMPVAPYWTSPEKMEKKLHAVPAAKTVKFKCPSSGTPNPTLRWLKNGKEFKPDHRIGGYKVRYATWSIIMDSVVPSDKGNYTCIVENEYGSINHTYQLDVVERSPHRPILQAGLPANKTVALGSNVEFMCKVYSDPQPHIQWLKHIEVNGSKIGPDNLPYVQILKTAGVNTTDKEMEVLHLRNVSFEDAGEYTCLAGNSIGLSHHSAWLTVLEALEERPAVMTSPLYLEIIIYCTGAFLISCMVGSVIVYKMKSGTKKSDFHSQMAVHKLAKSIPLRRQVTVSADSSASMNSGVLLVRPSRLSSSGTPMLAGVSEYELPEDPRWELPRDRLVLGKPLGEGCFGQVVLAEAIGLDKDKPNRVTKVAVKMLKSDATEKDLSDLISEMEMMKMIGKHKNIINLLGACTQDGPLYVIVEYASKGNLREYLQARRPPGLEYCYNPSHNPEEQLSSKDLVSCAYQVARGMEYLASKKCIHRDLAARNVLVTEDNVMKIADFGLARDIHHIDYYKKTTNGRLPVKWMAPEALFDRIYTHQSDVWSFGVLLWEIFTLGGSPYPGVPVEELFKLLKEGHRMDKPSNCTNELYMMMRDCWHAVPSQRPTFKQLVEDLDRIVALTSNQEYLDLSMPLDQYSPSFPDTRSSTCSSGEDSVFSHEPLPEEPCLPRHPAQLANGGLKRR

As to `C=CC(=O)Nc1cc(N2CCC(N3CCOCC3)CC2)cc(F)c1Nc1n[nH]c2ccc(O[C@H](C)c3c(Cl)cncc3Cl)cc12`, the IC50 in data set [1] is 3.5 nM; in data set [3], 4.7 nM; in data set [4] it was 29 nM; in data set [7], 72 nM; in [9], greater than 10000 nM; in [11] it was 2970 nM. The IC50 in data set [14] is greater than 10000 nM; in [15] it was 34 nM; in data set [16], greater than 1000 nM; in data set [17], 8.1 nM; in [18], 54 nM; in data set [19], greater than 10000 nM. Moreover, the Activity entry in [2] was “Dde”; in data set [10], “Non-Toxic”. For the same compound, the inhibition entry in data set [5], in data set [8], in data set [12] and in [13] was “Active” in each case. Moreover, the inhibition in vivo at 20 mg/kg in [6] worked out at 25.9%. Besides, in data set [20], the inhibition in vivo at 40 mg/kg amounted to 46.9%.

For the origin of these results see ChEMBL document CHEMBL5154789 (J Med Chem, 2022).
